Experimental data: patent US20020137929A1, “1 - (3-heterocyclylphenyl) isothiourea, -isourea, -guanidine and -amidine herbicidal agents” (Intellectual Property Department, BASF Aktiengesellschaft, priority 1998, published 2002)

How the values were obtained:
SETVI (Foxtail, Green) = assay: Preemergence herbicidal evaluation; type: in vivo, Setaria viridis; settings: rated 4-5 weeks after treatment
Summary of the method: (§1)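 Sown cups got a single aqueous acetone spray of test compound (roughly 0.0156–0.500 kg/ha) before seedlings emerged. Evaluation, 4–5 weeks on, used a 0–9 visual scale covering plant stand, vigor, size, malformation, chlorosis and general appearance compared with controls.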

CYPSE (Flatsedge) [1] = assay: Postemergence weed control under flooded paddy conditions; type: in vivo, Cyperus serotinus; settings: postemergence weeds, 3-4 weeks after treatment
Summary of the method: (§2)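 Herbicidal effect is judged by eye on a 0–9 scale versus control, 3–4 weeks after dosing. Dosing is into flood water kept 1.5–3 cm over the soil, at about 0.0313–0.500 kg/ha in aqueous/acetone 50/50 v/v, on 3–5 cm weeds and 1.5–2.5-leaf rice seedlings.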

CASOB (Sicklepod) = assay: Postemergence herbicidal evaluation; type: in vivo, Cassia obtusifolia; settings: postemergence
Summary of the method: (§3)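 Visual 0–9 rating versus control (stand, vigor, malformation, size, chlorosis, overall appearance), taken four to five weeks post-spray. Two-week-old seedlings received roughly 0.0156–0.500 kg/ha active in acetone/water (50/50) with 0.5% TWEEN 20 via nozzle at 40 psi.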

CYPIR (Rice Flatsedge) = assay: Postemergence weed control under flooded paddy conditions; type: in vivo, Cyperus iria; settings: postemergence weeds, 3-4 weeks after treatment
Summary of the method: as §2

[2] = test system: GLXMAW (Soybean, Williams); assay: Preemergence herbicidal evaluation; type: in vivo, Glycine max, (L.) Merr. cv Williams; settings: rated 4-5 weeks after treatment
Summary of the method: as §1

[3] = test system: SAGPY (Arrowhead (Pygmaea)); assay: Postemergence weed control under flooded paddy conditions; type: in vivo, Sagittaria pygmaea; settings: postemergence weeds, 3-4 weeks after treatment
Summary of the method: as §2

AMBEL (Ragweed, Common) = assay: Preemergence herbicidal evaluation; type: in vivo, Ambrosia artemisifolia; settings: rated 4-5 weeks after treatment
Summary of the method: as §1

ORYSAT (Rice, Tebonnet) [4] = assay: Preemergence herbicidal evaluation; type: in vivo, Oryza sativa, (L.) Tebonnet; settings: rated 4-5 weeks after treatment
Summary of the method: as §1

CYPSE (Flatsedge) [5] = assay: Preemergence weed control under flooded paddy conditions; type: in vivo, Cyperus serotinus; settings: rated 3-4 weeks after treatment
Summary of the method: (§4)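 Visual injury scored 0-9 against control three to four weeks post-treatment, greenhouse-grown. Application: acetone/water (50/50) solutions dosed directly into flood water (1.5-3 cm over silt loam, planted top 0.5 cm), roughly 0.0313 to 0.500 kg/ha active ingredient.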

MOOVA (Monochoria) = assay: as above; type: in vivo, Monochoria vaginalis; settings: rated 3-4 weeks after treatment
Summary of the method: as §4

[6] = test system: CHEAL (Lambsquarters, Common); assay: Postemergence herbicidal evaluation; type: in vivo, Chenopodium album; settings: postemergence
Summary of the method: as §3

ZEAMX (Corn, Field) = assay: Postemergence herbicidal evaluation; type: in vivo, Zea mays; settings: postemergence
Summary of the method: as §3

GALAP (Galium) = assay: Postemergence herbicidal evaluation; type: in vivo, Galium aparine; settings: postemergence
Summary of the method: as §3

ORYSAT (Rice, Tebonnet) [7] = assay: Postemergence herbicidal evaluation; type: in vivo, Oryza sativa, (L.) Tebonnet; settings: postemergence
Summary of the method: as §3

Compound: CCC1SC(=Nc2cc(-n3c(=O)cc(C(F)(F)F)n(C)c3=O)c(F)cc2Cl)N(C)C1=O (stereo not drawn) [Compound 10]
- SETVI preemergence herbicidal rating (SETVI (Foxtail, Green); rate 0.0156 kg/ha): 2.3
- SETVI preemergence herbicidal rating (SETVI (Foxtail, Green); rate 0.0313 kg/ha): 5.7
- SETVI preemergence herbicidal rating (SETVI (Foxtail, Green); rate 0.0625 kg/ha): 9.0
- SETVI preemergence herbicidal rating (SETVI (Foxtail, Green); rate 0.1250 kg/ha): 9.0
- SETVI preemergence herbicidal rating (SETVI (Foxtail, Green); rate 0.2500 kg/ha): 9.0
- Herbicidal rating CYPSE (CYPSE (Flatsedge) [1]; rate 0.0313 kg/ha): 0.0
- Herbicidal rating CYPSE (CYPSE (Flatsedge) [1]; rate 0.0625 kg/ha): 0.0
- Herbicidal rating CYPSE (CYPSE (Flatsedge) [1]; rate 0.1250 kg/ha): 0.0
- Herbicidal rating CYPSE (CYPSE (Flatsedge) [1]; rate 0.2500 kg/ha): 0.0
- CASOB herbicidal rating (CASOB (Sicklepod); rate 0.0156 kg/ha): 0.0
- CASOB herbicidal rating (CASOB (Sicklepod); rate 0.0313 kg/ha): 0.0
- CASOB herbicidal rating (CASOB (Sicklepod); rate 0.0625 kg/ha): 0.5
- CASOB herbicidal rating (CASOB (Sicklepod); rate 0.1250 kg/ha): 3.0
- Herbicidal rating CYPIR (CYPIR (Rice Flatsedge); rate 0.0313 kg/ha): 0.0
- Herbicidal rating CYPIR (CYPIR (Rice Flatsedge); rate 0.0625 kg/ha): 0.0
- Herbicidal rating CYPIR (CYPIR (Rice Flatsedge); rate 0.1250 kg/ha): 2.0
- Herbicidal rating CYPIR (CYPIR (Rice Flatsedge); rate 0.2500 kg/ha): 4.0
- GLXMAW preemergence herbicidal rating ([2]; rate 0.0156 kg/ha): 2.0
- GLXMAW preemergence herbicidal rating ([2]; rate 0.0313 kg/ha): 2.3
- GLXMAW preemergence herbicidal rating ([2]; rate 0.0625 kg/ha): 3.7
- GLXMAW preemergence herbicidal rating ([2]; rate 0.1250 kg/ha): 6.7
- GLXMAW preemergence herbicidal rating ([2]; rate 0.2500 kg/ha): 7.0
- Herbicidal rating SAGPY ([3]; rate 0.0313 kg/ha): 0.0
- Herbicidal rating SAGPY ([3]; rate 0.0625 kg/ha): 0.0
- Herbicidal rating SAGPY ([3]; rate 0.1250 kg/ha): 0.0
- Herbicidal rating SAGPY ([3]; rate 0.2500 kg/ha): 0.0
- AMBEL preemergence herbicidal rating (AMBEL (Ragweed, Common); rate 0.0156 kg/ha): 0.3
- AMBEL preemergence herbicidal rating (AMBEL (Ragweed, Common); rate 0.0313 kg/ha): 0.3
- AMBEL preemergence herbicidal rating (AMBEL (Ragweed, Common); rate 0.0625 kg/ha): 3.3
- AMBEL preemergence herbicidal rating (AMBEL (Ragweed, Common); rate 0.1250 kg/ha): 4.7
- AMBEL preemergence herbicidal rating (AMBEL (Ragweed, Common); rate 0.2500 kg/ha): 6.3
- ORYSAT preemergence herbicidal rating (ORYSAT (Rice, Tebonnet) [4]; rate 0.0156 kg/ha): 1.0
- ORYSAT preemergence herbicidal rating (ORYSAT (Rice, Tebonnet) [4]; rate 0.0313 kg/ha): 3.0
- ORYSAT preemergence herbicidal rating (ORYSAT (Rice, Tebonnet) [4]; rate 0.0625 kg/ha): 4.5
- ORYSAT preemergence herbicidal rating (ORYSAT (Rice, Tebonnet) [4]; rate 0.1250 kg/ha): 6.5
- ORYSAT preemergence herbicidal rating (ORYSAT (Rice, Tebonnet) [4]; rate 0.2500 kg/ha): 7.5
- Herbicidal rating CYPSE (CYPSE (Flatsedge) [5]; 0.0313 kg/ha): 0.0
- Herbicidal rating CYPSE (CYPSE (Flatsedge) [5]; 0.0625 kg/ha): 0.0
- Herbicidal rating CYPSE (CYPSE (Flatsedge) [5]; 0.1250 kg/ha): 0.0
- Herbicidal rating CYPSE (CYPSE (Flatsedge) [5]; 0.2500 kg/ha): 0.0
- Herbicidal rating MOOVA (MOOVA (Monochoria); 0.0313 kg/ha): 9.0
- Herbicidal rating MOOVA (MOOVA (Monochoria); 0.0625 kg/ha): 9.0
- Herbicidal rating MOOVA (MOOVA (Monochoria); 0.1250 kg/ha): 9.0
- Herbicidal rating MOOVA (MOOVA (Monochoria); 0.2500 kg/ha): 9.0
- CHEAL herbicidal rating ([6]; rate 0.0156 kg/ha): 7.0
- CHEAL herbicidal rating ([6]; rate 0.0313 kg/ha): 7.0
- CHEAL herbicidal rating ([6]; rate 0.0625 kg/ha): 9.0
- CHEAL herbicidal rating ([6]; rate 0.1250 kg/ha): 9.0
- ZEAMX herbicidal rating (ZEAMX (Corn, Field); rate 0.0156 kg/ha): 4.3
- ZEAMX herbicidal rating (ZEAMX (Corn, Field); rate 0.0313 kg/ha): 5.3
- ZEAMX herbicidal rating (ZEAMX (Corn, Field); rate 0.0625 kg/ha): 5.3
- ZEAMX herbicidal rating (ZEAMX (Corn, Field); rate 0.1250 kg/ha): 5.3
- GALAP herbicidal rating (GALAP (Galium); rate 0.0156 kg/ha): 1.0
- GALAP herbicidal rating (GALAP (Galium); rate 0.0313 kg/ha): 2.0
- GALAP herbicidal rating (GALAP (Galium); rate 0.0625 kg/ha): 3.5
- GALAP herbicidal rating (GALAP (Galium); rate 0.1250 kg/ha): 4.5
- ORYSAT herbicidal rating (ORYSAT (Rice, Tebonnet) [7]; rate 0.0156 kg/ha): 1.8
- ORYSAT herbicidal rating (ORYSAT (Rice, Tebonnet) [7]; rate 0.0313 kg/ha): 2.5
- ORYSAT herbicidal rating (ORYSAT (Rice, Tebonnet) [7]; rate 0.0625 kg/ha): 2.5
- ORYSAT herbicidal rating (ORYSAT (Rice, Tebonnet) [7]; rate 0.1250 kg/ha): 3.0
